Usually share remaining stands for the share of the starting amount still present when the sample was taken. A lower share remaining goes with more turnover. By pEC50 is commonly meant the negative decadic logarithm of the EC50, by convention in mol/L. Lower therefore signals a high EC50. A word on the pIC50: it is the negative decadic logarithm of the IC50, by convention in mol/L.

From US6620910B1, “Peptide compounds analogues of the glucagon-like peptide-1 (7-37)” (Les Laboratoires Servier, priority 1998, dated 2003) come the findings set out here.

pEC50, pIC50: −log10 of the molar value.

In data set [1] the target is dipeptidyl peptidase IV (DPP IV) (Homo sapiens, UniProt P27487). Briefly: Metabolic stability towards dipeptidyl peptidase IV. It is filed as in vitro ADME. The protocol:
Each compound is dissolved in 50 mg/ml of BSA in an aqueous 1% trifluoroacetic acid solution to obtain a concentration of 1 mg/ml.
50 μl samples of the above-prepared solution containing 1 mg/ml of the peptide are added to 940 μl of 0.1M TRIS, pH 8.0. After analysis of the solution by HPLC to determine the amount of peptide, 10 μl of an aqueous solution containing 48 milli-units of dipeptidyl peptidase IV (DPP IV) are added, and the samples are analysed by HPLC at time T0 and after incubation for 10 minutes at 37° C.
The measurement results enable evaluation of the amount of peptide remaining and are expressed as a percentage in relation to T0.

Data set [2] concerns the target T1, GLP-1 receptor (Rattus norvegicus, UniProt P32301).
T1 construct: endogenous in cells; host or cells: RIN T3 cells (membranes in A1, whole cells in A2)
T1 sequence (P32301 22-463): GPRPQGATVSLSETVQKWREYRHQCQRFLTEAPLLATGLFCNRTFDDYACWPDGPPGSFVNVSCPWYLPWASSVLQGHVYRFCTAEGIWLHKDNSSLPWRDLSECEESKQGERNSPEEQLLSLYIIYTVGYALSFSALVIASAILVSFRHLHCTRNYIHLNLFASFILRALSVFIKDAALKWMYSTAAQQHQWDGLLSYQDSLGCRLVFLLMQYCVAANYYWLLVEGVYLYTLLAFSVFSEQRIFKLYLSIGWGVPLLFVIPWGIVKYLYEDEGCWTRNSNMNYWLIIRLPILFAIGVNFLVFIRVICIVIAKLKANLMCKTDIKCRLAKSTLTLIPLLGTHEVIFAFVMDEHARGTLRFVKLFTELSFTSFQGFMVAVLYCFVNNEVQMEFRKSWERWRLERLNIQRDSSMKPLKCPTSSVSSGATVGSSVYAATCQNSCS
Briefly: Agonist character: cyclic AMP production in RIN T3 cells. The format is cell-based. The following applies: 20 minutes at 25° C., 100% = cAMP induced by 10^−8M GLP-1. The protocol: The agonist character of the compounds of the invention was determined by measuring the production of cyclic AMP after activation of the receptor by the different products being tested.
RIN T3 cells are cultured for 6 days and the culture medium is chanced 1 day before the experiment. The cells (3×10^5 per well) are washed twice with DMEM before the addition of 0.5 ml of DMEM containing 1% BSA, 0.2 ml of IBMX and the peptide being tested. After incubation for 20 minutes at 25° C., the intracellular cAMP is extracted, succinylated and quantified by radioimmunoassay.
The reference value of 100% corresponds to the production of cAMP induced by a concentration of 10^−8M GLP-1 and the value 0% corresponds to the basal production in the absence of GLP-1.

Data set [3] has as its target T1, GLP-1 receptor. Briefly: GLP-1 receptor binding study (RIN T3 membranes, [125I]-GLP-1). The conditions noted are these: [125I]-GLP-1, 45 min at 37° C., read-out: affinity (IC50). The protocol:
The GLP-1 receptor binding studies were carried out using RIN T3 membranes in a […] Tris-HCl buffer pH 7.5 containing 4% BSA and […] of bacitracin. The membranes (20 to 30 μg) are incubated in a final volume of 500 μl with approximately 15 fmol of [125I]-GLP-1 (50,000 cpm) and the cold competitor for 45 min. at 37° C. The reaction is stopped by the addition of 750 μl of cold KRP buffer, pH 7.5, containing 3% BSA. The mixture is centrifuged at 12,000×g (4° C., 5 min). The residue is resuspended in 1 ml of cold KRP buffer and sedimented by a further centrifugation, and the radioactivity is measured. The results are expressed as IC50.

A further data set can be described thus: in vitro. The format is in vitro ADME. The following applies: human, plasma.

Chain of dipeptidyl peptidase IV (DPP IV) (P27487 whole entry, species assumed): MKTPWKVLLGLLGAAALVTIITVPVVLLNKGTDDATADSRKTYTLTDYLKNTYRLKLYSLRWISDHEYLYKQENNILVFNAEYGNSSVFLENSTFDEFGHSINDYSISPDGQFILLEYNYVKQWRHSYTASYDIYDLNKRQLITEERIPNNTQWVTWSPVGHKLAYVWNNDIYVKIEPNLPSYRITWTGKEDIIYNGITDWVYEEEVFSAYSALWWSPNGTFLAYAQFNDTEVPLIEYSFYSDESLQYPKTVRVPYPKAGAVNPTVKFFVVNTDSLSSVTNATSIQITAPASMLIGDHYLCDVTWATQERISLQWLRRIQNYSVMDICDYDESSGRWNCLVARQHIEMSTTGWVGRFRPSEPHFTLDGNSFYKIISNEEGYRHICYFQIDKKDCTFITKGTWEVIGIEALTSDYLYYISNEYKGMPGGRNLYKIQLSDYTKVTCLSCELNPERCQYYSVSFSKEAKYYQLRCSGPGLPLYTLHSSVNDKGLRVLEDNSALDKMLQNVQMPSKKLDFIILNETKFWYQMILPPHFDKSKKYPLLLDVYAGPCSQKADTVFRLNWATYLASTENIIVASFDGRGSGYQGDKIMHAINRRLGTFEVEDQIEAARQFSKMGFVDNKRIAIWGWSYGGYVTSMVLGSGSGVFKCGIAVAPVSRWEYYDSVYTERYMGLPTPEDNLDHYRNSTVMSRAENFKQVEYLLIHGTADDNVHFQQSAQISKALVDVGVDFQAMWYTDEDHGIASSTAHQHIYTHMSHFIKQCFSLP
Description for in vitro: An aliqout of 50 μg/ml of a solution containing the peptide to be studied is incubated in human plasma at 37° C. An HPLC linear analysis method allows measurement of the amount of peptide at time T0, then after incubation for 5, 10, 15, 30 and 60 minutes.

With `CC[C@H](C)[C@H](NC(=O)[C@H](Cc1ccccc1)NC(=O)[C@H](CCC(=O)O)NC(=O)[C@H](CCCCN)NC(=O)[C@H](C)NC(=O)[C@H](C)NC(=O)[C@H](CCC(N)=O)NC(=O)CNC(=O)[C@H](CCC(=O)O)NC(=O)[C@H](CC(C)C)NC(=O)[C@H](Cc1ccc(O)cc1)NC(=O)[C@H](CO)NC(=O)[C@H](CO)NC(=O)[C@@H](NC(=O)[C@H](CC(=O)O)NC(=O)[C@H](CO)NC(=O)[C@@H](NC(=O)[C@H](Cc1ccccc1)NC(=O)[C@@H](NC(=O)CNC(=O)[C@H](CCC(=O)O)NC(=O)[C@@H](C)NC(=O)[C@@H](N)Cc1c[nH]cn1)[C@@H](C)O)[C@@H](C)O)C(C)C)C(=O)N[C@@H](C)C(=O)N[C@@H](Cc1c[nH]c2ccccc12)C(=O)N[C@@H](CC(C)C)C(=O)N[C@H](C(=O)N[C@@H](CCCCN)C(=O)NCC(=O)NCC(N)=O)C(C)C` [Example 7], the amount remaining at 10 min, 50 μg/ml in data set [1] (isolated enzyme dpp iv, pH 8) turned out to be 100%. The compound further had a pEC50 at GLP-1 receptor [2] of 8.99. In addition, at GLP-1 receptor [3], the pIC50 is 9.48. In “in vitro”, this compound yielded an amount remaining at 5 min, 50 μg/ml of 100%; a fraction remaining at 10 min, 50 μg/ml of 100%; a fraction remaining at 0.25 h, 50 μg/ml of 100%; a fraction remaining at 0.5 h, 50 μg/ml of 100%. In the data set “in vitro”, this compound returned an amount remaining at 1 h, 50 μg/ml of 100%.

Consider “Glucagon-Like Peptides-1 (7-37) and (7-36) NH2 [^tGLP1, reference compound]”, for which the “DDP IV % peptide remaining” value in data set [1] (incubation time 10 minutes, 37° C., 48 milli-units DPP IV, 0.1M TRIS pH 8.0, relative to T0) was determined as 8%.
